These results are taken from ChEMBL document CHEMBL5154789 (J Med Chem, 2022).

One experiment deals with Hep 3B2. Nature of the experiment: cells. Particulars: Homo sapiens, Hep3B, 120 h.
For the next experiment, the system named is NCI-H1299. Description: cells. The conditions noted are these: Homo sapiens, NCI-H1299, 120 h.
For the next experiment, the system named is MDA-MB-453. Description: cells. Particulars: Homo sapiens, MDA-MB-453, 120 h.
Experiment [1] addresses Fibroblast growth factor receptor 2 (Homo sapiens, UniProt P21802).
Description: Inhibition of FGFR2 (unknown orgin) using Tyr 04 peptide as substrate incubated for 1 hr in presence of 5 uM ATP by FRET based Z'-LYTE assay
In experiment [2] the target is Fibroblast growth factor receptor 3 (Homo sapiens, UniProt P22607).
Description: Inhibition of FGFR3 (unknown orgin) using Tyr 04 peptide as substrate incubated for 1 hr in presence of 75 uM ATP by FRET based Z'-LYTE assay
In experiment [3] the test system is BaF3. Nature of the experiment: cells. The conditions noted are these: Mus musculus, BaF3, 72 h.
The target of experiment [4] is Fibroblast growth factor receptor 4 (Homo sapiens, UniProt P22455). Description: Inhibition of N-terminal 6His-tagged FGFR4 (unknown orgin) (445 to 753 residues) expressed in Rosetta (NEB) cells using Tyr 04 peptide as substrate incubated for 1 hr in presence of 150 uM ATP by FRET based Z'-LYTE assay.
Experiment [5] concerns the target Fibroblast growth factor receptor 1 (Homo sapiens, UniProt P11362).
Description: Inhibition of FGFR1 (unknown orgin) using Tyr 04 peptide as substrate incubated for 1 hr in presence of 25 uM ATP by FRET based Z'-LYTE assay
Experiment [6] has as its system BaF3. Nature of the experiment: cells. Particulars: Mus musculus, BaF3, 72 h. The source holds these as a separate data set.
The subject of experiment [7] is BaF3. Nature of the experiment: Antiproliferative activity against mouse BAF3 cells expressing FGFR4 V550M mutant assessed as inhibition of cell growth incubated for 72 hrs by CCK8 assay. The class given is functional, cell-based. The conditions noted are these: BaF3, 72 h.
The nature of experiment [8]: Antiproliferative activity against human JHH7 cells assessed as inhibition of cell growth incubated for 5 days by SRB assay. The class given is functional, cell-based. Particulars: JHH7, 120 h. (The SRB assay estimates cell density from bound dye.)
The test system of experiment [9] is BaF3. Description: Antiproliferative activity against mouse BAF3 cells assessed as inhibition of cell growth incubated for 72 hrs by CCK8 assay. The class given is functional, cell-based. Particulars: BaF3, 72 h. (Tetrazolium dyes change colour on reduction, which living cells bring about.)
A further experiment deals with Huh-7. Nature of the experiment: Antiproliferative activity against human Huh-7 cells assessed as inhibition of cell growth incubated for 5 days by SRB assay. The class given is functional, cell-based. The conditions noted are these: Huh-7, 120 h.

SMILES strings stand for the structures. Where only a bound is given, the exact number is not on record here.

Fibroblast growth factor receptor 1, sequence (P11362 whole entry): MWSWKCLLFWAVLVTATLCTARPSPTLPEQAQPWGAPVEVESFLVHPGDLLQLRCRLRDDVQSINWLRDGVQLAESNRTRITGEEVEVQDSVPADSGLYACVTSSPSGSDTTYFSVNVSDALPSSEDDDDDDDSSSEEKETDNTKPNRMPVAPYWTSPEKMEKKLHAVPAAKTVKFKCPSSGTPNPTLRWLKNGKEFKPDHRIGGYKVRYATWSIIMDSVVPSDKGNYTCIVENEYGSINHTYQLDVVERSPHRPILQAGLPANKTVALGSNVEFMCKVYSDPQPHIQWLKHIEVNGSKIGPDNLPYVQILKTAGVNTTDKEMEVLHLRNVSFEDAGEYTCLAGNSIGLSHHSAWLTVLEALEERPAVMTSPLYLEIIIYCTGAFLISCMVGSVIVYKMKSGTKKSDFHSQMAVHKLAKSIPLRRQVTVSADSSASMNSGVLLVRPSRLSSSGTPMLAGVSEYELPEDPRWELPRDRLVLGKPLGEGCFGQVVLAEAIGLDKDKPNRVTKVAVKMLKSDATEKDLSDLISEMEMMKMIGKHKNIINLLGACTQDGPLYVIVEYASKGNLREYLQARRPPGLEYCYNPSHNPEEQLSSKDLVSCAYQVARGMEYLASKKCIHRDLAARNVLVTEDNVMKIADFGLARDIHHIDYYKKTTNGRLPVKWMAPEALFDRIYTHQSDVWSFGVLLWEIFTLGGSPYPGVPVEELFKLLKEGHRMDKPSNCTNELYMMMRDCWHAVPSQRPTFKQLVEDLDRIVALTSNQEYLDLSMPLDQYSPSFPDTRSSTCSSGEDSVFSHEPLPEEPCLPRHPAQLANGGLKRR
Fibroblast growth factor receptor 3, sequence (P22607 whole entry): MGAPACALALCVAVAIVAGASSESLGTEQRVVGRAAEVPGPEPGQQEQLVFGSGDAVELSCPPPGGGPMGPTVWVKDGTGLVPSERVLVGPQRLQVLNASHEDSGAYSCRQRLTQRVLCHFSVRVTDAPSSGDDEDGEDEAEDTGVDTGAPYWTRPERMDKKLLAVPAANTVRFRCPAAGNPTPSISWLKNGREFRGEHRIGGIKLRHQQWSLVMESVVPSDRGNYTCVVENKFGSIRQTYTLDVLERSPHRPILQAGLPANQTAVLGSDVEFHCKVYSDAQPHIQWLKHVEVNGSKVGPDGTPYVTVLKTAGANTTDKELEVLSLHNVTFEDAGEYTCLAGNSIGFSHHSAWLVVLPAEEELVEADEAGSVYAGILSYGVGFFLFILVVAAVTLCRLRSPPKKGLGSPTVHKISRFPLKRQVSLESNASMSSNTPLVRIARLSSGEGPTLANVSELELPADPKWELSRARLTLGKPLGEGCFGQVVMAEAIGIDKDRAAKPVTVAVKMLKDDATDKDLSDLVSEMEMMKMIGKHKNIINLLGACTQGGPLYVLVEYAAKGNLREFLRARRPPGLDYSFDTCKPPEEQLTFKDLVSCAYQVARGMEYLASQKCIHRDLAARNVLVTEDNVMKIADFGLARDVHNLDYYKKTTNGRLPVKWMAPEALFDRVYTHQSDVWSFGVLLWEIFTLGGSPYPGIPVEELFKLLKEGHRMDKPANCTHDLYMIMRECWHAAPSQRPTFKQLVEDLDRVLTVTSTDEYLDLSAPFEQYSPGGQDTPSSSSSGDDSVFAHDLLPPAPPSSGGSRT
Fibroblast growth factor receptor 4, sequence (P22455 whole entry, the tested form may be a part): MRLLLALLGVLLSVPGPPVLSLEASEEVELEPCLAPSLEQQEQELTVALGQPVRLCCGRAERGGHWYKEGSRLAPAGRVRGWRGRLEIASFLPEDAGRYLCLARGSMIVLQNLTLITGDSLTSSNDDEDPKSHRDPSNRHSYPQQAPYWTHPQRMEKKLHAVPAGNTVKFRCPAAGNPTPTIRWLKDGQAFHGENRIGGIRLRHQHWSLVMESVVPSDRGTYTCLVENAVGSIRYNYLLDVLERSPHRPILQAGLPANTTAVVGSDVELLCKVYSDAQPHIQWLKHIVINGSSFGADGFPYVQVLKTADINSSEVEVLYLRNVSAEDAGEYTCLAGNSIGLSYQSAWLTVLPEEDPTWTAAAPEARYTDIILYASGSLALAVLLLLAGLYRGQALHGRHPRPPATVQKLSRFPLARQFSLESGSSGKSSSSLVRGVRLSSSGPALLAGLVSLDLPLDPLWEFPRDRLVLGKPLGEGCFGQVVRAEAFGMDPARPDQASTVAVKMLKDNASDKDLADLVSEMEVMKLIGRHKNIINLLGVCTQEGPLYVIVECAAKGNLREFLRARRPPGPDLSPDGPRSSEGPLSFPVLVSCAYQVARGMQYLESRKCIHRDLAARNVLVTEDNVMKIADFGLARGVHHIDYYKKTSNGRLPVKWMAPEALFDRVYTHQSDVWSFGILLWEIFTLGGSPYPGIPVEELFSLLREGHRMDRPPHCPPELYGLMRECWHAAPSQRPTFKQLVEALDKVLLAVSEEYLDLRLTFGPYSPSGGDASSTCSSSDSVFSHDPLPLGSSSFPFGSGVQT
Fibroblast growth factor receptor 2, sequence (P21802 whole entry): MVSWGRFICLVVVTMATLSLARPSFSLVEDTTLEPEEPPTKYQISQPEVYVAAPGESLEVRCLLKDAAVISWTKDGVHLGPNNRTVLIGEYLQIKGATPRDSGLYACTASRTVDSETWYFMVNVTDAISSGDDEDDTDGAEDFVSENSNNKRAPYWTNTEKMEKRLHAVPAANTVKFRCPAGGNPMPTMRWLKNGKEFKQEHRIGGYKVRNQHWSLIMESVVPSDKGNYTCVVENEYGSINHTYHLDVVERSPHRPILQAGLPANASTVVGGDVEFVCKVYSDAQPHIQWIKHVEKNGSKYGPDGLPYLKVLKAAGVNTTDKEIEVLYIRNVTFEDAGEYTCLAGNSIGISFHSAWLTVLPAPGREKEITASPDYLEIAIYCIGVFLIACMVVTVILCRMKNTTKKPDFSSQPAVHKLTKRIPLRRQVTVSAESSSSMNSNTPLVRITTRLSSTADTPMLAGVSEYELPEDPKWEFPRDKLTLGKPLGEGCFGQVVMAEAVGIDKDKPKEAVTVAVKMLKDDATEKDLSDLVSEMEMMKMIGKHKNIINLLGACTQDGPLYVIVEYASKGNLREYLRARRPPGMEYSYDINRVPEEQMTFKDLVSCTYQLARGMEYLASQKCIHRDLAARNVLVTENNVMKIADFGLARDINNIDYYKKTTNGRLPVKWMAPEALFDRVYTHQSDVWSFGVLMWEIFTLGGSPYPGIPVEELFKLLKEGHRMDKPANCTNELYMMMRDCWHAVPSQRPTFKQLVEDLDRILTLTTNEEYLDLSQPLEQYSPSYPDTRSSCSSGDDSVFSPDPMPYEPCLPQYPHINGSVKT
Description for Hep 3B2: Antiproliferative activity against human Hep3B cells assessed as inhibition of cell growth incubated for 5 days by SRB assay
Description for MDA-MB-453: Antiproliferative activity against human MDA-MB-453 cells assessed as inhibition of cell growth incubated for 5 days by SRB assay
Description for NCI-H1299: Antiproliferative activity against human NCI-H1299 cells assessed as inhibition of cell growth incubated for 5 days by SRB assay

A word on the IC50: it is the concentration needed to halve the response being measured. As to `C=CC(=O)Nc1cc(N(C)CCOC)cc(F)c1Nc1n[nH]c2ccc(O[C@H](C)c3c(Cl)cncc3Cl)cc12`, the IC50 is 330 nM in the experiment on Hep 3B2; 4760 nM with NCI-H1299; 210 nM in the experiment with MDA-MB-453; over 10000 nM in experiment [1]; over 10000 nM in experiment [2]; 20 nM in the experiment on BaF3 [3].

Consider `C=CC(=O)N1CC[C@@H](Nc2n[nH]c3ccc(O[C@H](C)c4c(Cl)cncc4Cl)cc23)C1`, for which the IC50 in experiment [1] and in experiment [2] was over 10000 nM in each case.

For `C=CC(=O)N1CCC[C@@H](Nc2n[nH]c3ccc(O[C@H](C)c4c(Cl)cncc4Cl)cc23)C1`, the IC50 in experiment [4], in [1] and in experiment [2] was over 10000 nM throughout.

On to `C=CC(=O)Nc1cccc(Cl)c1Nc1n[nH]c2ccc(O[C@H](C)c3c(Cl)cncc3Cl)cc12`, for which the IC50 with Hep 3B2 was 4440 nM; in the experiment on NCI-H1299, 6100 nM; in the experiment with MDA-MB-453 it was 570 nM; in [1] it was over 10000 nM; in [2], over 10000 nM; in the experiment with BaF3 [3] it was 3 nM.

As to `C=CC(=O)Nc1cc(N2CCOCC2)ccc1Nc1n[nH]c2ccc(O[C@H](C)c3c(Cl)cncc3Cl)cc12`, the IC50 in the experiment with Hep 3B2 is 730 nM; in the experiment with NCI-H1299, 5310 nM; in the experiment with MDA-MB-453, 750 nM; in experiment [1] it was over 10000 nM; in experiment [2] it was over 10000 nM; with BaF3 [3], 15 nM.

`C=CC(=O)Nc1cc(N2CCC(N(C)C)CC2)cc(F)c1Nc1n[nH]c2ccc(O[C@H](C)c3c(Cl)cncc3Cl)cc12`: the IC50 with Hep 3B2 was 50 nM; in experiment [5], over 10000 nM; with NCI-H1299 it was 1600 nM; in the experiment with MDA-MB-453 it was 7 nM; in experiment [1], over 10000 nM; in experiment [2] it was over 10000 nM. The same compound showed an IC50 in the experiment with BaF3 [3] of 1.5 nM.

On to `C=CC(=O)N[C@H]1CCCC[C@H]1Nc1n[nH]c2ccc(O[C@H](C)c3c(Cl)cncc3Cl)cc12`, for which the IC50 in [4], in [1] and in [2] was over 10000 nM each time.

As for `C=CC(=O)Nc1cn(C)nc1Nc1n[nH]c2ccc(O[C@H](C)c3c(Cl)cncc3Cl)cc12`, the IC50 in experiment [1] and in [2] was over 10000 nM each time.

For the compound `CCC(=O)Nc1ccccc1Nc1n[nH]c2ccc(O[C@H](C)c3c(Cl)cncc3Cl)cc12`, the IC50 in experiment [1] and in [2] was over 10000 nM each time.

Regarding `C=CC(=O)Nc1cc(N2CCN(C)CC2)cc(F)c1Nc1n[nH]c2ccc(O[C@H](C)c3c(Cl)cncc3Cl)cc12`, the IC50 in the experiment with BaF3 [6] was 2.5 nM; in the experiment with Hep 3B2, 18 nM; in [5] it was over 10000 nM; in the experiment on NCI-H1299, 2060 nM; in the experiment on BaF3 [7], 3.7 nM; in the experiment on MDA-MB-453 it was 18 nM. The concentration for half-maximal inhibition (IC50) in experiment [1] was over 10000 nM; in [8] it was 28 nM; in [2], over 10000 nM; in the experiment with BaF3 [9], over 1000 nM; in the experiment on Huh-7, 96 nM; with BaF3 [3], 0.9 nM.

For the compound `C=CC(=O)Nc1cccc(F)c1Nc1n[nH]c2ccc(O[C@H](C)c3c(Cl)cncc3Cl)cc12`, the IC50 in the experiment with Hep 3B2 was 710 nM; in the experiment with NCI-H1299, 3800 nM; in the experiment with MDA-MB-453 it was 190 nM; in experiment [1], over 10000 nM; in [2], over 10000 nM; in the experiment with BaF3 [3], 7.6 nM.

Turning to `C=CC(=O)Nc1cc(N2CCN(S(C)(=O)=O)CC2)cc(F)c1Nc1c[nH]c2ccc(O[C@H](C)c3c(Cl)cncc3Cl)cc12`, the IC50 is 110 nM with Hep 3B2; over 10000 nM in experiment [5]; 2760 nM with NCI-H1299; 33 nM in the experiment with MDA-MB-453; over 10000 nM in experiment [1]; over 10000 nM in experiment [2]. The IC50 in the experiment with BaF3 [3] was 6.5 nM.

In the case of `C=CC(=O)Nc1cc(N2CCC(N3CCN(C)CC3)CC2)cc(F)c1Nc1n[nH]c2ccc(O[C@H](C)c3c(Cl)cncc3Cl)cc12`, the IC50 with Hep 3B2 was 47 nM; in experiment [5] it was over 10000 nM; with NCI-H1299 it was 1580 nM; in the experiment on MDA-MB-453, 10 nM; in experiment [1] it was over 10000 nM; in experiment [2] it was over 10000 nM. Also, the midpoint of inhibition in the experiment with BaF3 [3], the IC50, lay at 1.7 nM.

Regarding `C=CC(=O)Nc1ccccc1Nc1n[nH]c2cc(-c3c(Cl)c(OC)cc(OC)c3Cl)ccc12`, the IC50 in experiment [4] was over 10000 nM; in [1], 4770 nM.

Turning to `C=CC(=O)Nc1cccc(OC)c1Nc1n[nH]c2ccc(O[C@H](C)c3c(Cl)cncc3Cl)cc12`, the IC50 in the experiment with Hep 3B2 is 10500 nM; in the experiment with NCI-H1299, 4880 nM; in the experiment with MDA-MB-453, 5190 nM; in [1], over 10000 nM; in experiment [2], over 10000 nM; in the experiment with BaF3 [3] it was 3560 nM.

In the case of `C=CC(=O)N[C@H]1CCOC[C@H]1Nc1n[nH]c2ccc(O[C@H](C)c3c(Cl)cncc3Cl)cc12`, the IC50 in experiment [4], in [1] and in experiment [2] was over 10000 nM each time.

As for `C=CC(=O)Nc1cc(N2CCC(N3CCOCC3)CC2)ccc1Nc1n[nH]c2ccc(O[C@H](C)c3c(Cl)cncc3Cl)cc12`, the IC50 in the experiment with Hep 3B2 was 220 nM; in experiment [5], over 10000 nM; in the experiment on NCI-H1299, 3360 nM; with MDA-MB-453, 110 nM; in experiment [1] it was over 10000 nM; in experiment [2], over 10000 nM. Besides, half-maximal inhibition in the experiment on BaF3 [3] (IC50) required 0.2 nM.

As to `C=CC(=O)Nc1cc(N2CCN(C)CC2)ccc1Nc1n[nH]c2ccc(O[C@H](C)c3c(Cl)cncc3Cl)cc12`, the IC50 in the experiment on Hep 3B2 is 290 nM; in the experiment with NCI-H1299, 2530 nM; with MDA-MB-453, 120 nM; in [1], over 10000 nM; in experiment [2], over 10000 nM; in the experiment on BaF3 [3] it was 6 nM.

For the compound `C=CC(=O)Nc1cc(N2CCOCC2)cc(F)c1Nc1n[nH]c2ccc(O[C@H](C)c3c(Cl)cncc3Cl)cc12`, the IC50 in the experiment with Hep 3B2 is 220 nM; in the experiment with NCI-H1299 it was 3760 nM; in the experiment on MDA-MB-453, 64 nM; in experiment [1] it was over 10000 nM; in [2], over 10000 nM; in the experiment with BaF3 [3] it was 9.5 nM.

`C=CC(=O)Nc1ccccc1Nc1n[nH]c2ccc(OC(CC)c3c(Cl)cncc3Cl)cc12` (stereo unspecified) registered an IC50 in [1] of over 10000 nM.

On to `C=CC(=O)Nc1ccc(OC)cc1Nc1n[nH]c2ccc(O[C@H](C)c3c(Cl)cncc3Cl)cc12`, for which the IC50 is 30200 nM with Hep 3B2; 12500 nM in the experiment on NCI-H1299; over 10000 nM in experiment [4]; 15200 nM with MDA-MB-453; over 10000 nM in [1]; over 10000 nM in experiment [2]. For the same compound, in the experiment with BaF3 [3], the IC50 was determined as 1990 nM.

Regarding `C=CC(=O)Nc1cc(N2CCN(C3COC3)CC2)cc(F)c1Nc1n[nH]c2ccc(O[C@H](C)c3c(Cl)cncc3Cl)cc12`, the IC50 in the experiment on Hep 3B2 is 51 nM; in [5], over 10000 nM; in the experiment on NCI-H1299, 3000 nM; in the experiment with MDA-MB-453, 14 nM; in experiment [1], over 10000 nM; in experiment [2], over 10000 nM. This compound also returned an IC50 with BaF3 [3] of 1.9 nM.

Turning to `C=CC(=O)Nc1ccccc1Nc1n[nH]c2ccc(O[C@H](C)c3c(Cl)cncc3Cl)cc12`, inhibition in [1] was half-maximal at 949 nM (IC50).

Regarding `C=CC(=O)Nc1cccc(C2CC2)c1Nc1n[nH]c2ccc(O[C@H](C)c3c(Cl)cncc3Cl)cc12`, the IC50 with Hep 3B2 was 15300 nM; with NCI-H1299 it was 5170 nM; in [4], over 10000 nM; with MDA-MB-453, 7550 nM; in [1] it was over 10000 nM; in experiment [2], over 10000 nM. In addition, in the experiment on BaF3 [3], the IC50 turned out to be 520 nM.

`C=CC(=O)Nc1cccc(CC)c1Nc1n[nH]c2ccc(O[C@H](C)c3c(Cl)cncc3Cl)cc12`: the IC50 is 16300 nM with Hep 3B2; 4580 nM in the experiment with NCI-H1299; over 10000 nM in experiment [4]; 7590 nM in the experiment on MDA-MB-453; over 10000 nM in experiment [1]; over 10000 nM in experiment [2]. Also, the IC50 in the experiment on BaF3 [3] was over 2000 nM.

On to `C=CC(=O)Nc1cccc(C)c1Nc1n[nH]c2ccc(O[C@H](C)c3c(Cl)cncc3Cl)cc12`, for which the IC50 in the experiment on Hep 3B2 is 2700 nM; in the experiment on NCI-H1299 it was 9120 nM; in the experiment on MDA-MB-453 it was 620 nM; in [1], over 10000 nM; in [2], over 10000 nM; in the experiment on BaF3 [3], 2 nM.

For `C=CC(=O)Nc1ccccc1Nc1n[nH]c2ccc(OCc3c(Cl)cncc3Cl)cc12`, the IC50 in experiment [1] was over 10000 nM.

In the case of `C=CC(=O)Nc1ccccc1Nc1n[nH]c2ccc(OC(C)c3c(Cl)cccc3Cl)cc12` (stereo unspecified), the IC50 in experiment [4], in [1] and in experiment [2] was over 10000 nM in each case.

As for `C=CC(=O)Nc1ccccc1Nc1n[nH]c2ccc(OC(C)c3c(Cl)ccc(F)c3Cl)cc12` (stereo unspecified), the IC50 in [1] and in experiment [2] was over 10000 nM each time.

As to `C=CC(=O)Nc1cccc(Cl)c1Nc1ncc2cc(-c3c(Cl)c(OC)cc(OC)c3Cl)ccc2n1`, the IC50 was over 100 nM with BaF3 [6]; 160 nM with Hep 3B2; 1070 nM in the experiment with NCI-H1299; over 100 nM in the experiment on BaF3 [7]; 62 nM with MDA-MB-453; 238 nM in [1]. Moreover, the IC50 is 194 nM in [8], over 1000 nM with BaF3 [9], 48 nM in the experiment with Huh-7 and 2.4 nM in the experiment with BaF3 [3].
